According to patent US11124509B2, “Tri-substituted imidazoles for the inhibition of TGF beta and methods of treatment” (CLAVIUS PHARMACEUTICALS, LLC, priority 2017, dated 2021):
pIC50: −log10 of the molar value. Where a name gives a salt, the structure may show the parent alone. Read-outs that look alike come from different tables or passages of the source.

Key:
TGFBR1 (ALK5) = TGFBR1 (ALK5) (Homo sapiens (Human), UniProt P36897); experiment: LanthaScreen Eu Kinase Binding Assay TGFBR1 (ALK5) (ThermoFisher SelectScreen); settings: read-out: TβRI (ALK5) Binding IC50
Chain of TGFBR1 (ALK5) (P36897 34-503): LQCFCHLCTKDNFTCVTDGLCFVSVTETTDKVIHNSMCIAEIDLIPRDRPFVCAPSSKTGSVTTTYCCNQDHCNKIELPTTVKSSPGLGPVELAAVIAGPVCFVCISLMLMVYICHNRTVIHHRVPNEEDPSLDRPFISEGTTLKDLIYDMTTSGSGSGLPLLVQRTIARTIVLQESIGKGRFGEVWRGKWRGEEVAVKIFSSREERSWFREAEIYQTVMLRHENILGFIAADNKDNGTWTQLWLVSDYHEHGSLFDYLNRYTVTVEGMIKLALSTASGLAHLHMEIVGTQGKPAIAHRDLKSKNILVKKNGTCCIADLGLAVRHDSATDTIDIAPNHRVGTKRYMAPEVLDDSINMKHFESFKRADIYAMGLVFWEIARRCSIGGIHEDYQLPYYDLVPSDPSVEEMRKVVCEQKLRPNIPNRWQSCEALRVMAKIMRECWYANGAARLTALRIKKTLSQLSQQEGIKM
Experimental: (§1) Exemplified compounds were confirmed to inhibit ALK5 activity in enzyme and cellular assays in the following assay systems conducted by ThermoFisher in Madison, Wis. according to their commercially available protocols.
ThermoFisher SelectScreen™ Biochemical Kinase Profiling Service, LanthaScreen™Eu Kinase Binding Assay TGFBR1 (ALK5)
Exemplified compounds were screened in 1% DMSO (final concentration) by 3-fold serial dilutions from 10,000 nM to 0.316 nM to produce an IC50 or at single concentrations of 10,000, 1000 and 100 nM according to the following protocol. To low volume, white 384-well plates (Greiner Cat #784207) add 160 nL 100× compound in 100% DMSO, 3.84 uL kinase buffer (50 mM HEPES, pH 7.5, 0.01% BRIJ-35, 10 mM MgCl2, 1 mM EGTA), 8 uL 2× kinase/antibody mixture in kinase buffer (final ALK5 concentration of 5 nM; final Eu-anti-GST antibody concentration of 2 nM), 4 uL 4× Tracer #178 in kinase buffer (final concentration of 5 nM). Gently shake the plates for 30 seconds and incubate at room temperature for 1 hour before reading fluorescence on a plate reader. Percent inhibition was determined compared to DMSO only control (maximal ALK5 tracer binding) and sigmoidal dose response curve fit yielded IC50 values as indicated in Table 2.

[1] = test system: TGF-beta 1 stimulated SBE-b1a HEK 293T cells; experiment: GeneBLAzer beta-lactamase reporter, TGF-beta 1 stimulated SBE-b1a HEK 293T cell-based assay (ThermoFisher SelectScreen); settings: Homo sapiens, HEK-293T; TGF-beta 1 0.03 nM, 5 hours; inhibitor 10,000 nM to 0.316 nM; sigmoidal dose response curve fit; read-out: Cells (SBE_HEK293T) IC50
Experimental: as §1
ThermoFisher SelectScreen™ Cell-Based Pathway Profiling Service GeneBLAzer Beta-Lactamase (b1a) Reporter Technology—TGF-Beta 1 Stimulated SBE-b1a HEK 293T Cell-Based Assay
SBE-b1a HEK 293T cells were thawed and re-suspended in Assay Media (OPTI-MEM, 0.5% dialyzed FBS, 0.1 mM NEAA, 1 mM Sodium Pyruvate, 100 U/mL/100 μg/mL Pen/Strep) to a concentration of 625,000 cells/mL. 32 μL of cell suspension (20,000 cells) was added to each well of a 384-well Poly-D-Lysine assay plate. Cells in Assay Media were incubated for 16-24 hours in the plate at 37° C./5% CO2 in a humidified incubator. 4 μL of a 10× serial dilution of ALK5 inhibitors (10x=100,000-3.16 nM) was added to appropriate wells of the plate and pre-incubated at 37° C./5% CO2 in a humidified incubator with cells for 30 minutes. Final concentration of inhibitor ranged from 10,000 nM to 0.316 nM. 4 μL of 10× TGF-beta 1 (final concentration of 0.03 nM) was added to wells containing the inhibitors. The plate was incubated for 5 hours at 37° C./5% CO2 in a humidified incubator. 8 μL of 1 μM Substrate Loading Solution was added to each well and the plate was incubated for 2 hours at room temperature before being read on a fluorescence plate reader. Percent inhibition was determined compared to DMSO only control (maximal TGF-beta 1 stimulation) and sigmoidal dose response curve fit yielded IC50 values as indicated in Table 2.

[2] = 3-fold serial dilutions 10,000 nM to 0.316 nM, ALK5 5 nM, Tracer #178 5 nM, sigmoidal dose response curve fit
[3] = compounds marked with an asterisk: evaluated at three concentrations, IC50 depicted as less than the lowest concentration producing >50% inhibition

pIC50 (TGFBR1 (ALK5); [2]) | pIC50 (TGFBR1 (ALK5); [3]) | Compound | pIC50 [1]
7.31 | – | CC(C)n1ccc(-c2nc(CNc3cccc(F)c3)[nH]c2-c2ccc3ncc(C(N)=O)n3n2)n1 [Compound 34] | 6.42
8.92 | – | Fc1cc(F)cc(NCc2nc(-c3ccn(C4CC4)n3)c(-c3ccc4nccnc4c3)[nH]2)c1 [Compound 68] | 7.96
7.35 | – | CNC(=O)c1ccc(-c2nc(-c3ccn(C)n3)c(-c3ccc4ncsc4c3)[nH]2)cc1 [Compound 64, 4-(5-(benzo[d]thiazol-6-yl)-4-(1-methyl-1H-pyrazol-3-yl)-1H-imidazol-2-yl)-N-methylbenzamide] | 6.20
– | > 6.70 | Cn1ccc(-c2nc(CNc3cccc(F)c3)[nH]c2-c2ccc3ncccc3c2)n1 [Compound 24] | 5.71
8.18 | – | N#Cc1cccc(NCc2nc(-c3ccn(C(F)F)n3)c(-c3ccc4nccnc4c3)[nH]2)c1 [Compound 47] | 7.71
5.86 | – | Cn1ccc(-c2nc(CNc3ccccc3)[nH]c2-c2ccc3ncnn3c2)n1 [Compound 4, N-((5-([1,2,4]triazolo[1,5-a]pyridin-6-yl)-4-(1-methyl-1H-pyrazol-3-yl)-1H-imidazol-2-yl)methyl)aniline hydrochloride] | < 5.00
6.55 | – | CN(C)C(=O)c1ccc(-c2nc(-c3ccn(C)n3)c(-c3ccc4ncsc4c3)[nH]2)cc1 [Compound 66] | 5.87
– | > 6.00 | Cn1ccc(-c2nc(CNc3ccccc3F)[nH]c2-c2ccc3ncccc3c2)n1 [Compound 31, 2-fluoro-N-((4-(1-methyl-1H-pyrazol-3-yl)-5-(quinolin-6-yl)-1H-imidazol-2-yl)methyl)aniline hydrochloride] | 5.05
8.33 | – | Cn1ccc(-c2nc[nH]c2-c2ccc3ncsc3c2)n1 [Compound 55] | 6.88
7.34 | – | Cn1ccc(-c2nc(C(N)=O)[nH]c2-c2ccc3ncsc3c2)n1 [Compound 62, 5-(benzo[d]thiazol-6-yl)-4-(1-methyl-1H-pyrazol-3-yl)-1H-imidazole-2-carboxamide] | 5.95
– | > 7.00 | CC(C)n1ccc(-c2nc(CNc3cccc(C(N)=O)c3)[nH]c2-c2ccc3ncnn3c2)n1 [Compound 29, 3-(((5-([1,2,4]triazolo[1,5-a]pyridin-6-yl)-4-(1-isopropyl-1H-pyrazol-3-yl)-1H-imidazol-2-yl)methyl)amino)benzamide] | 5.34
6.89 | – | CC(C)n1ccc(-c2nc(CNc3ccccc3F)[nH]c2-c2ccc3nccnc3c2)n1 [Compound 57] | 5.66
– | > 7.00 | CC(C)n1ccc(-c2nc(CNc3cc(F)ccc3F)[nH]c2-c2ccc3nccnc3c2)n1 [Compound 45] | 6.49
6.45 | – | Cn1ccc(-c2nc(CNc3cccc(F)c3)[nH]c2-c2ccc3ncnn3c2)n1 [Compound 6, N-((5-([1,2,4]triazolo[1,5-a]pyridin-6-yl)-4-(1-methyl-1H-pyrazol-3-yl)-1H-imidazol-2-yl)methyl)-3-fluoroaniline hydrochloride] | 5.41
– | > 7.00 | CC(C)n1ccc(-c2nc(CNc3cccc(-n4cccn4)c3)[nH]c2-c2ccc3nccnc3c2)n1 [Compound 40] | 5.98
